# Measured values as given in PMC10218234, “Design, Synthesis and Antitumor Activity of 1H-indazole-3-amine Derivatives” (International Journal of Molecular Sciences, 2023).
# Where two headings read alike, the source gives them in different places.
# Tests used:
# [1] = tested on: K562 cells; experiment: MTT anti-proliferative assay, K562; type: cell-based; conditions: Homo sapiens
# Experimental: (§1) The antiproliferative activity of the target indazole derivatives was evaluated against a panel of human cancer cell lines (human chronic myeloid leukemia cell lines K562; human lung cancer cell lines A549; human prostate cancer cell lines PC-3; human hepatoma cell lines HepG-2) in vitro, and human embryonic kidney cell lines HEK-293 were used to evaluate the cytotoxicity of a normal cell with high activity derivatives by MTT assay. Moreover, 5-fluorouracil (5-Fu), a broad-spectrum drug antitumor drug with therapeutic effects on various cancers, was used as a positive control.
# (§2) Lung (A549), chronic myeloid leukemia (K562), prostate (PC3), and live (Hep-G2) cells were purchased from the Cell Bank of the Chinese Academy of Sciences (Kunming, China). A549, K562, and PC-3 cells were cultured in RPMI-1640 medium and the liver cells Hep-G2 were cultured in MEM medium. All mediums were supplemented with 10% FBS, 100 μg/mL penicillin and 100 μg/mL streptomycin. All cells were cultivated in a 5% CO2 incubator at 37 °C.
# (§3) To investigate the anticancer activity of indazole derivatives, A549, K562, PC3, and Hep-G2 cells were treated with targets compounds respectively for 48 h in a range of concentrations (from 0.625 to 10 μM) and subjected to a proliferation assay using the MTT assay. Exponentially growing cells were seeded at a density of 5000 cells per well in 96-well plates containing 100 μL of fresh growth medium. After allowing the cells to attach for 24 h, target compounds were added. After incubation for 48 h, viable cells were stained with MTT (0.5 mg/mL) for 4 h, and the produced formazan crystals were dissolved with 150 µL of dimethyl sulfoxide. Absorbance was measured at 490 nm using an automated microplate reader (Tecan, Infinite M200 Pro, Männedorf, Switzerland). The relative cell viability was calculated according to the following equation: Cell viability%=experimental OD value/control OD value×100%Cell inhibition%=control OD value−experimental OD value/control OD value×100%
# (§4) Cell inhibition%=control OD value−experimental OD value/control OD value×100%
# [2] = tested on: A549 cells; experiment: MTT anti-proliferative assay, A549; type: cell-based; conditions: Homo sapiens, read-out: IC50 ± SD, A549
# Experimental: as §1, §2, §3, §4
# [3] = tested on: PC-3 cells; experiment: MTT anti-proliferative assay, PC-3; type: cell-based; conditions: Homo sapiens, PC-3, 48 h
# Experimental: as §1, §2
# as §3, with “Exponentially” for “To investigate the anticancer activity of indazole derivatives, A549, K562, PC3, and Hep-G2 cells were treated with targets compounds respectively for 48 h in a range of concentrations (from 0.625 to 10 μM) and subjected to a proliferation assay using the MTT assay. Exponentially”
# as §4
# [4] = tested on: Hep-G2 cells; experiment: MTT anti-proliferative assay, Hep-G2; type: cell-based; conditions: Homo sapiens
# Experimental: as §1, §2, §3, §4
# [5] = MTT cytotoxicity to normal cells, HEK-293; type: cell-based, human; conditions: human, HEK-293 cells (normal human embryonic kidney cells); normal cell HEK-293; MTT; read-out: IC50 ± SD, HEK-293
# Experimental: as §1, §3, §4
# [6] = tested on: HEK-293 cells; experiment: MTT cytotoxicity to normal cells, HEK-293; type: cell-based, human; conditions: for Selectivity index (SI) for Hep-G2 cells: IC50 in HEK-293 divided by IC50 in Hep-G2
# Experimental: as §1, §3, §4
# [7] = tested on: K562 cells; experiment: Cell cycle analysis (PI staining, flow cytometry); type: cell-based, human; conditions: K562, positive control, 24 h
# Experimental: To further explore the antitumor properties of 6o, the effect of 6o on cell cycle distribution was evaluated. PI staining was used to perform cell cycle analysis.
# To analyze the cell cycle, a PI apoptosis detection kit (Solarbio, Wuhan, China) was utilized. After K562 cells were seeded in 6-well plates for 24 h, compound 6o (10, 12 and 14 μM) or positive control was added to the plates for another 24 h. Then, cells were washed three times with PBS, and fixed with 70% ethanol at 4°C for overnight. After fixed, cells were again washed with PBS and incubated at 37 °C with 100 μL RNase A for 30 min. After this, cells were incubated with 400 μL PI for 30 min at 4 °C. After staining, cells were subjected to Flow Cytometry using Cell Quest software (BD, SN: E34297502014) and the PI fluorescence was recorded in the FL2 channel. Data were analyzed using FlowJo V10.
# [8] = Table 2, 48 h, read-out: IC50 ± SD, K562
# [9] = Table 2, read-out: IC50 ± SD, PC-3
# [10] = HepG2, 48 h, Table 2, 48 h, read-out: IC50 ± SD, Hep-G2
# [11] = Table 1, 48 h, read-out: IC50 ± SD, K562
# [12] = Table 1, read-out: IC50 ± SD, PC-3
# [13] = HepG2, 48 h, Table 1, 48 h, read-out: IC50 ± SD, Hep-G2
# [14] = HepG2, Table 3, read-out: IC50 ± SD, Hep-G2
Compound,"IC50 [1, 8] [µM]","IC50 ([2]; Table 2, 48 h) [µM]","IC50 [3, 9] [µM]","IC50 [4, 10] [µM]",melting point [°C],"IC50 [1, 11] [µM]","IC50 ([2]; Table 1, 48 h) [µM]","IC50 [3, 12] [µM]","IC50 [4, 13] [µM]","IC50 ([1]; Table 3, read-out: IC50 ± SD, K562) [µM]","IC50 [4, 14] [µM]",IC50 at 48 h [5] [µM],Selectivity index (SI) for Hep-G2 cells [6],Selectivity index (SI) for K562 cells ([6]; IC50 in HEK-293 divided by IC50 in K562),increase of the proportion of the G0/G1 phase after drug treatment [7] [%]
O=C(CSc1ccc(F)cc1)Nc1n[nH]c2ccc(-c3ccc(Cl)c(F)c3)cc12 [5g],–,–,–,–,178 to 200,10.3 ± 1.14,6.4 ± 0.26,18.6 ± 5.73,11.9 ± 0.72,–,–,–,–,–,–
COc1ccc(SCC(=O)Nc2n[nH]c3ccc(-c4cc(F)cc(F)c4)cc23)cc1 [5j],–,–,–,–,204 to 205,8.49 ± 1.87,3.99 ± 0.16,14.7 ± 4.55,5.36 ± 0.25,–,–,–,–,–,–
O=C(CSc1ccc(Br)cc1)Nc1n[nH]c2ccc(-c3ccc(Cl)c(F)c3)cc12 [5h],–,–,–,–,267 to 268,14.3 ± 2.13,9.26 ± 0.37,13 ± 7.53,11.3 ± 0.75,–,–,–,–,–,–
COc1ccc(SCC(=O)Nc2n[nH]c3ccc(-c4ccc(OC(F)(F)F)cc4)cc23)cc1 [5f],–,–,–,–,215 to 216,> 50,4.48 ± 0.24,12.5 ± 4.55,> 50,–,–,–,–,–,–
O=C(CSc1cccc(Cl)c1)Nc1n[nH]c2ccc(-c3cc(F)cc(F)c3)cc12 [5n],–,–,–,–,193 to 194,7.25 ± 1.07,20 ± 1.19,> 50,6.57 ± 0.13,–,–,–,–,–,–
"O=c1[nH]cc(F)c(=O)[nH]1 [5-Fu, 5-fluorouracil, reference compound]",–,–,3.47 ± 0.21,2.25 ± 0.46,–,8.53 ± 2.27,8.37 ± 0.79,9.17 ± 3.93,9.78 ± 1.58,8.53 ± 2.27,9.78 ± 1.58,1.16 ± 0.11,0.12,0.14,10
O=C(CSc1ccc(Br)cc1)Nc1n[nH]c2ccc(-c3cc(F)cc(F)c3)cc12 [compound 5k],–,–,–,–,204 to 205,8.86 ± 0.66,7.78 ± 0.18,12.6 ± 2.17,3.32 ± 0.43,–,3.32 ± 0.43,12.2 ± 2.85,3.67,–,–
O=C(CSc1ccc([N+](=O)[O-])cc1)Nc1n[nH]c2ccc(-c3ccc(Cl)c(F)c3)cc12 [5i],–,–,–,–,243 to 246,6.27 ± 1.22,4.43 ± 0.15,6.57 ± 1.1,5.5 ± 0.17,–,–,–,–,–,–

# Second part, led by results:
"IC50 [1, 8] [µM]","IC50 ([2]; Table 2, 48 h) [µM]","IC50 [3, 9] [µM]","IC50 [4, 10] [µM]",melting point [°C],"IC50 [1, 11] [µM]","IC50 ([2]; Table 1, 48 h) [µM]","IC50 [3, 12] [µM]","IC50 [4, 13] [µM]","IC50 ([1]; Table 3, read-out: IC50 ± SD, K562) [µM]","IC50 [4, 14] [µM]",Compound,IC50 at 48 h [5] [µM],Selectivity index (SI) for Hep-G2 cells [6],Selectivity index (SI) for K562 cells ([6]; IC50 in HEK-293 divided by IC50 in K562),increase of the proportion of the G0/G1 phase after drug treatment [7] [%]
6.61 ± 0.38,15.8 ± 2.98,6.81 ± 1.09,2.35 ± 0.96,170 to 171,–,–,–,–,–,–,O=C(CN1CCN(c2ccc(C(F)(F)F)cc2)CC1)Nc1n[nH]c2ccc(-c3cc(F)cc(F)c3)cc12 [6g],–,–,–,–
> 50,24 ± 2.92,> 50,1.23 ± 0.39,188 to 189,–,–,–,–,–,–,COc1ccc(-c2ccc3[nH]nc(NC(=O)CN4CCN(c5ccc(OC)cc5)CC4)c3c2)cc1 [6c],–,–,–,–
14 ± 0.49,12.9 ± 0.21,2.89 ± 0.16,7.65 ± 3.34,200 to 201,–,–,–,–,–,–,O=C(CN1CCN(c2ccncc2)CC1)Nc1n[nH]c2ccc(-c3cc(F)cc(F)c3)cc12 [6l],–,–,–,–
13.3 ± 1.4,18.7 ± 3.1,34.8 ± 4.37,4.76 ± 0.63,174 to 176,–,–,–,–,–,–,COc1ccc(N2CCN(CC(=O)Nc3n[nH]c4ccc(-c5ccc(Cl)c(F)c5)cc34)CC2)cc1 [6n],–,–,–,–
> 50,17.6 ± 4.11,27.7 ± 16.9,20 ± 3.04,195 to 197,–,–,–,–,–,–,O=C(CN1CCN(c2ccncc2)CC1)Nc1n[nH]c2ccc(-c3ccc(Cl)c(Cl)c3)cc12 [6u],–,–,–,–
10.8 ± 0.68,20.4 ± 8.08,20.3 ± 4.71,2.92 ± 1.41,179 to 182,–,–,–,–,–,–,O=C(CN1CCN(c2ccc(Cl)cc2)CC1)Nc1n[nH]c2ccc(-c3ccc(Cl)c(Cl)c3)cc12 [6s],–,–,–,–
11.1 ± 0.69,40.9 ± 6.54,19 ± 0.58,1.98 ± 0.35,194 to 197,–,–,–,–,–,–,N#Cc1ccc(N2CCN(CC(=O)Nc3n[nH]c4ccc(-c5ccc(Cl)c(Cl)c5)cc34)CC2)cc1 [6t],–,–,–,–
7.78 ± 0.1,20.3 ± 1.24,7.58 ± 1.01,3.87 ± 0.47,179 to 181,–,–,–,–,–,–,O=C(CN1CCN(c2ccc(Cl)cc2)CC1)Nc1n[nH]c2ccc(-c3cc(F)cc(F)c3)cc12 [6j],–,–,–,–
11.2 ± 0.56,7.83 ± 1.06,4.25 ± 0.13,1.61 ± 0.28,180 to 182,–,–,–,–,–,–,O=C(CN1CCN(c2ccccc2)CC1)Nc1n[nH]c2ccc(-c3cc(F)cc(F)c3)cc12 [6k],–,–,–,–
18.6 ± 2.14,19.9 ± 1.15,9.69 ± 0.26,1.69 ± 0.68,200 to 201,–,–,–,–,–,–,COc1ccc(-c2ccc3[nH]nc(NC(=O)CN4CCN(c5ccc(Cl)c(Cl)c5)CC4)c3c2)cc1 [6b],–,–,–,–
8.85 ± 0.26,12.8 ± 0.78,7.15 ± 0.14,> 50,140 to 141,–,–,–,–,–,–,COc1ccc(-c2ccc3[nH]nc(NC(=O)CN4CCN(Cc5ccc(Cl)cc5)CC4)c3c2)cc1 [6e],–,–,–,–
